In paper PMC6934184, “Selective DNA-PKcs inhibition extends the therapeutic index of localized radiotherapy and chemotherapy” (The Journal of Clinical Investigation, 2019) one finds inhibition data, which are given here for one compound.

SMILES strings stand for the structures.

The target of this test is T1, CSNK2A1 (CK2 alpha 1) (Homo sapiens, UniProt P68400).
T1 construct: purchased Thermo Fisher Scientific (Life Technologies) SelectScreen
Briefly: SelectScreen Z'LYTE. The class given is biochemical. An outline of the steps: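 SelectScreen broad panel; activity (Z'LYTE, Adapta) plus binding formats. ATP: Km app for CSF1R Z'LYTE; 10 for CAMK1 Adapta. Readout = % per kinase.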

T1 sequence (P68400 whole entry): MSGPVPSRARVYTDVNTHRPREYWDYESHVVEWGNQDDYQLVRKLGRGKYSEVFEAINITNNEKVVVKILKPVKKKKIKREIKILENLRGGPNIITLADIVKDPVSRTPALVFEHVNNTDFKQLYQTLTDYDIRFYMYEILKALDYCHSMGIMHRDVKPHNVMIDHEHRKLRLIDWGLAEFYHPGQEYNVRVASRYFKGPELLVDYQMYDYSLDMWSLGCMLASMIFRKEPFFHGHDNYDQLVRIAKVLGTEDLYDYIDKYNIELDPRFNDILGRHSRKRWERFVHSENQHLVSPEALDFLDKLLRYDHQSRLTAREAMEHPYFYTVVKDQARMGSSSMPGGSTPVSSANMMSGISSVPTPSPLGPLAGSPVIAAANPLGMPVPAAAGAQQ

With `CN(C(=O)CN1CCOCC1)c1ccc2sc3c(-c4cccc5c(=O)cc(N6CC7CCC(C6)O7)oc45)cccc3c2c1` [NU5455], the inhibition (as a rule, the percentage by which the read-out fell short of the control) at 1 µM was 7.1%.
